Usually IC50 stands for the point on the concentration scale where inhibition reaches its midpoint.

The target of the experiment is T1, SHP2 (Homo sapiens, UniProt Q06124).
T1 sequence (Q06124 1-593): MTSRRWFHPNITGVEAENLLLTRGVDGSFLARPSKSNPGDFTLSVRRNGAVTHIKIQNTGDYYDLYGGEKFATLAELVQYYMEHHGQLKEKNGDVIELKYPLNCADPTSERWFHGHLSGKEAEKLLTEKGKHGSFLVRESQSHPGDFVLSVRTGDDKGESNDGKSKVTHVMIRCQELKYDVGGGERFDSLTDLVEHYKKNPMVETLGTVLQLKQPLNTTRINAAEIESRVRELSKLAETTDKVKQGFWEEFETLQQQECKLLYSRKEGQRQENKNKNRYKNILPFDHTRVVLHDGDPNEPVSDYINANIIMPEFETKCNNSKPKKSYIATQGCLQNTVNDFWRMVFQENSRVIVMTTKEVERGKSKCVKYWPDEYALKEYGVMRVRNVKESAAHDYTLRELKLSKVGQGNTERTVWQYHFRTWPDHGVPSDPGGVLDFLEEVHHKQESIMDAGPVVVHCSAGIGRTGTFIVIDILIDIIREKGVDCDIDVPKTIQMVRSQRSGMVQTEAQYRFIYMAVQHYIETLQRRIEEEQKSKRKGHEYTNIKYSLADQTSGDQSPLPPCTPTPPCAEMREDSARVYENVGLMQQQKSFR
Nature of the experiment: SHP2 allosteric inhibitor enzyme activity assay (DiFMUP fluorescence). Format: biochemical. Particulars: class symbols. In outline: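 SHP2 activated by 0.5 μM IRS1_pY1172(dPEG8)pY1222 peptide, 0.2 ng enzyme per well, 1 h at room temperature with compound (1 μM top, 3-fold series), then DiFMUP substrate 1 h. Buffer: 60 mM HEPES, 75 mM NaCl, 75 mM KCl, 0.05% BRIJ-35, 1 mM EDTA, 5 mM DTT. Fluorescence ex 340/em 450 nm; IC50 by variable-slope fit.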
In turn, `N[C@@H]1c2ccccc2CC12CCN(c1nc3[nH]nc(C4(c5ccc[s+]5[O-])CC4)c3c(=O)[nH]1)CC2` (stereo partly drawn) [Example 242, 6-((S)-1-amino-1,3-dihydrospiro[indene-2,4′-piperidin]-1′-yl)-3-(1-(1-oxidothiophen-2-yl)cyclopropyl)-1,5-dihydro-4H-pyrazolo[3,4-d]pyrimidin-4-one] showed an IC50 of no more than 20 nM.

`C[C@@H]1OCC2(CCN(c3nc4[nH]nc(C5(c6ccc(Cl)cc6Cl)CC5)c4c(=O)[nH]3)CC2)[C@@H]1N` [Example 313, 6-((3S,4S)-4-amino-3-methyl-2-oxa-8-azaspiro[4.5]decan-8-yl)-3-(1-(2,4-dichlorophenyl)cyclopropyl)-1,5-dihydro-4H-pyrazolo[3,4-d]pyrimidin-4-one] displayed an IC50 greater than 60 nM.

The compound `N[C@@H]1c2ccccc2CC12CCN(c1nc3[nH]nc(C4(c5ccnc(OC6CC6)c5)CC4)c3c(=O)[nH]1)CC2` [Example 30, (S)-6-(1-amino-1,3-dihydrospiro[indene-2,4′-piperidin]-1′-yl)-3-(1-(2-cyclopropoxypyridin-4-yl)cyclopropyl)-1,5-dihydro-4H-pyrazolo[3,4-d]pyrimidin-4-one] had an IC50 of no more than 20 nM.

`CC1(C)C=C(c2n[nH]c3nc(N4CCC5(CC4)Cc4ccccc4[C@H]5N)[nH]c(=O)c23)c2cc(Br)cnc2C1` [Example 160, (S)-6-(1-amino-1,3-dihydrospiro[indene-2,4′-piperidin]-1′-yl)-3-(3-bromo-7,7-dimethyl-7,8-dihydroquinolin-5-yl)-1,5-dihydro-4H-pyrazolo[3,4-d]pyrimidin-4-one] registered a concentration for half-maximal inhibition (IC50) of no more than 20 nM.

Consider `Nc1cccc(C2(c3n[nH]c4nc(N5CCC6(CC5)Cc5ccccc5[C@H]6N)[nH]c(=O)c34)CC2)c1` [Example 43, (S)-6-(1-amino-1,3-dihydrospiro[indene-2,4′-piperidin]-1′-yl)-3-(1-(3-aminophenyl)cyclopropyl)-1,5-dihydro-4H-pyrazolo[3,4-d]pyrimidin-4-one], for which the IC50 was no more than 20 nM.

Compound `N[C@@H]1c2ccccc2CC12CCN(c1nc3[nH]nc(C4(c5cccc(C6CCOCC6)c5)CC4)c3c(=O)[nH]1)CC2` [Example 40, (S)-6-(1-amino-1,3-dihydrospiro[indene-2,4′-piperidin]-1′-yl)-3-(1-(3-(tetrahydro-2H-pyran-4-yl)phenyl)cyclopropyl)-1,5-dihydro-4H-pyrazolo[3,4-d]pyrimidin-4-one] displayed an IC50 of no more than 20 nM.

Compound `N[C@@H]1c2cccnc2CC12CCN(c1nc3[nH]nc(C4(c5ccccc5)CC4)c3c(=O)[nH]1)CC2` [Example 200, (S)-6-(5-amino-5,7-dihydrospiro[cyclopenta[b]pyridine-6,4′-piperidin]-1-yl)-3-(1-phenylcyclopropyl)-1,5-dihydro-4H-pyrazolo[3,4-d]pyrimidin-4-one] showed an IC50 of no more than 20 nM.

`N[C@@H]1c2ccccc2CC12CCN(c1nc3[nH]nc(C4(c5cccc(OC6CC6)c5)CC4)c3c(=O)[nH]1)CC2` [Example 227, (S)-6-(1-amino-1,3-dihydrospiro[indene-2,4′-piperidin]-1′-yl)-3-(1-(3-cyclopropoxyphenyl)cyclopropyl)-1,5-dihydro-4H-pyrazolo[3,4-d]pyrimidin-4-one] showed an IC50 of no more than 20 nM.

As to `C[C@@H]1OCC2(CCN(c3nc4[nH]nc(C5(c6ccc(F)c(F)c6)CC5)c4c(=O)[nH]3)CC2)[C@@H]1N` [Example 295, 6-((3S,4S)-4-amino-3-methyl-2-oxa-8-azaspiro[4.5]decan-8-yl)-3-(1-(3,4-difluorophenyl)cyclopropyl)-1,5-dihydro-4H-pyrazolo[3,4-d]pyrimidin-4-one], the IC50 is 20 to 60 nM.

The compound `N[C@@H]1c2ccccc2CC12CCN(c1nc3[nH]nc(C4(c5cccc(C6CC6)c5)CC4)c3c(=O)[nH]1)CC2` [Example 218, (S)-6-(1-amino-1,3-dihydrospiro[indene-2,4′-piperidin]-1′-yl)-3-(1-(3-cyclopropylphenyl)cyclopropyl)-1,5-dihydro-4H-pyrazolo[3,4-d]pyrimidin-4-one] yielded an IC50 of no more than 20 nM.

Consider `CC1(C)C=C(c2n[nH]c3nc(N4CCC5(CC4)Cc4ccccc4[C@H]5N)[nH]c(=O)c23)c2cnc(C3CC3)nc2C1` [Example 148, (S)-6-(l-amino-1,3-dihydrospiro[indene-2,4'-piperidin]-1′-yl)-3-(2-cyclopropyl-7,7-dimethyl-7,8-dihydroquinazolin-5-yl)-1,5-dihydro-4H-pyrazolo[3,4-d]pyrimidin-4-one], for which the IC50 was in the range of 20 to 60 nM.

As to `N[C@@H]1c2ccccc2CC12CCN(c1nc3[nH]nc(C4(c5ccnc(NC6CC6)c5)CC4)c3c(=O)[nH]1)CC2` [Example 29, (S)-6-(1-amino-1,3-dihydrospiro[indene-2,4′-piperidin]-1′-yl)-3-(1-(2-(cyclopropylamino)pyridin-4-yl)cyclopropyl)-1,5-dihydro-4H-pyrazolo[3,4-d]pyrimidin-4-one], the IC50 is no more than 20 nM.

For `N[C@@H]1c2ccccc2CC12CCN(c1nc3[nH]nc(C4(c5cccs5)CCC4)c3c(=O)[nH]1)CC2` [Example 94, (S)-6-(1-amino-1,3-dihydrospiro[indene-2,4′-piperidin]-1′-yl)-3-(1-(thiophen-2-yl)cyclobutyl)-1,5-dihydro-4H-pyrazolo[3,4-d]pyrimidin-4-one], the IC50 was no more than 20 nM.

Consider `N[C@@H]1c2ccccc2CC12CCN(c1nc3[nH]nc(C4(c5ccsc5)CC4)c3c(=O)[nH]1)CC2` [Example 236, (S)-6-(1-amino-1,3-dihydrospiro[indene-2,4′-piperidin]-1′-yl)-3-(1-(thiophen-3-yl)cyclopropyl)-l,5-dihydro-4H-pyrazolo[3,4-d]pyrimidin-4-one], for which the IC50 is no more than 20 nM.

Compound `COc1ccc(C2(c3n[nH]c4nc(N5CCC6(CC5)CO[C@@H](C)[C@H]6N)[nH]c(=O)c34)CC2)cc1` [Example 304, 6-((3S,4S)-4-amino-3-methyl-2-oxa-8-azaspiro[4.5]decan-8-yl)-3-(1-(4-methoxyphenyl)cyclopropyl)-1,5-dihydro-4H-pyrazolo[3,4-d]pyrimidin-4-one] displayed an IC50 of 20 to 60 nM.

`N[C@@H]1CCCC12CCN(c1nc3[nH]nc(C4(c5ccccc5)CC4)c3c(=O)[nH]1)CC2` [Example 321, (R)-6-(1-amino-8-azaspiro[4.5]decan-8-yl)-3-(1-phenylcyclopropyl)-1,5-dihydro-4H-pyrazolo[3,4-d]pyrimidin-4-one] came in with an IC50 of 20 to 60 nM.

Regarding `N[C@@H]1c2ccccc2CC12CCN(c1nc3[nH]nc(C4(c5ccccc5)CC4)c3c3nncn13)CC2` [Example 3], the IC50 was no more than 20 nM.

As to `N[C@@H]1COCC12CCN(c1nc3[nH]nc(C4(c5ccccc5)CC4)c3c(=O)[nH]1)CC2` [Example 271, (S)-6-(4-amino-2-oxa-8-azaspiro[4.5]decan-8-yl)-3-(1-phenylcyclopropyl)-1,5-dihydro-4H-pyrazolo[3,4-d]pyrimidin-4-one], the IC50 lay in the range of 20 to 60 nM.

In turn, `N[C@@H]1c2ccccc2CC12CCN(c1nc3[nH]nc(C4(c5cccc(O)c5Cl)CC4)c3c(=O)[nH]1)CC2` [Example 50, (S)-6-(1-amino-1,3-dihydrospiro[indene-2,4′-piperidin]-1′-yl)-3-(1-(2-chloro-3-hydroxyphenyl)cyclopropyl)-1,5-dihydro-4H-pyrazolo[3,4-d]pyrimidin-4-one] came in with an IC50 of no more than 20 nM.

For the origin of these results see patent US20230192705A1, “SHP2 INHIBITORS, COMPOSITIONS AND USES THEREOF” (Betta Pharmaceuticals Co., Ltd, priority 2020, published 2023).
